The record followed here is patent publication US20070155779A1, “BICYCLIC HETEROARYL COMPOUNDS AS PDE10 INHIBITORS” (Pfizer Inc, priority 2006, published 2007).

The assay concerns the target PDE10 (Homo sapiens, UniProt Q9Y233). Briefly: PDE10 inhibition, Scintillation Proximity Assay (SPA). Format: biochemical. The settings on record: substrate at 1/3 Km, IC50 approximates Ki. The method, then:
Assay methods are available to screen a substance for inhibition of cyclic nuticleotide hydrolysis by the PDE10 and the PDEs from other gene families. The cyclic nucleotide substrate concentration used in the assay is ⅓ of the Km concentration, allowing for comparisons of IC50 values across the different enzymes. PDE activity is measured using a Scintillation Proximity Assay (SPA)-based method as previously described (Fawcett et al., 2000), The effect of PDE inhibitors is determined by assaying a fixed amount of enzyme (PDEs 1-11) in the presence of varying substance concentrations and low substrate, such that the IC50 approximates the Ki (cGMP or cAMP in a 3:1 ratio unlabelled to [^3H]-labeled at a concentration of ⅓ Km).). The final assay volume is made up to 100 μl with assay buffer [20 mM Tris-HCl pH 7.4, 5 mM MgCl2, 1 mg/ml bovine serum albumin]. Reactions are initiated with enzyme, incubated for 30-60 min at 30° C. to give <30% substrate turnover and terminated with 50 μl yttrium silicate SPA beads (Amersham) (containing 3 mM of the respective unlabelled cyclic nucleotide for PDEs 9 and 11). Plates are re-sealed and shaken for 20 min, after which the beads were allowed to settle for 30 minutes in the dark and then counted on a TopCount plate reader (Packard, Meriden, Conn.).
In general terms: Scintillation proximity formats need no separation of bound from free tracer.

Each structure is given as a SMILES string. pIC50: −log10 of the molar value.

One may read the pIC50 as −log10 of the IC50, conventionally taken in molar units. Read a high pIC50 as a small IC50.

PDE10, sequence (Q9Y233 whole entry): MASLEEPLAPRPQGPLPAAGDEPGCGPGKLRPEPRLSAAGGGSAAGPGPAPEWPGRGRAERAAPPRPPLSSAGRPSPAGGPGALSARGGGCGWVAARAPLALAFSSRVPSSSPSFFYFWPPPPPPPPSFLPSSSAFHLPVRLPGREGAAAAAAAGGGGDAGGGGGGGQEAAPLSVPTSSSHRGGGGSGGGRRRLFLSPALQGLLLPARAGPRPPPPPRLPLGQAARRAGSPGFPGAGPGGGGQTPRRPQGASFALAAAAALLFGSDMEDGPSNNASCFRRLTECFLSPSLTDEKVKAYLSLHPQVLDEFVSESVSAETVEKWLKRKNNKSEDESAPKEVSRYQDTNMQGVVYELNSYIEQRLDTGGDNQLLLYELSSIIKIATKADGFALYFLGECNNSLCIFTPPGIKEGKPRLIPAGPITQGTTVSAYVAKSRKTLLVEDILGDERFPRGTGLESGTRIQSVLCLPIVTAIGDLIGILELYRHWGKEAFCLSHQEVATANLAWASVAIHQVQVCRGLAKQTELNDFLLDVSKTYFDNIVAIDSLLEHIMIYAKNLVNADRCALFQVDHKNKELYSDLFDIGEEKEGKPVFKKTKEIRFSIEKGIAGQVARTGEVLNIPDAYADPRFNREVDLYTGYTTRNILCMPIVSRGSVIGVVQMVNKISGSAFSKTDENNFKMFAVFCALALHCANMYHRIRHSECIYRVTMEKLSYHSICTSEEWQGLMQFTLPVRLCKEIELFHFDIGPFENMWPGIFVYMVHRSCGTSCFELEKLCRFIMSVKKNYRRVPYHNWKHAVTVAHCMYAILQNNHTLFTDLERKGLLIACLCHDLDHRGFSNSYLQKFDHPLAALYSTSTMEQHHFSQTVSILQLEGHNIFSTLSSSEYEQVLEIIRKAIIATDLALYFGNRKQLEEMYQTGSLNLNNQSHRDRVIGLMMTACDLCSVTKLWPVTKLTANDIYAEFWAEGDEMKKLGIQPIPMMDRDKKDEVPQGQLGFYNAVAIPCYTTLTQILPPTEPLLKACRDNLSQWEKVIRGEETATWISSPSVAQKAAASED

Consider `Cn1c(COc2ccc(-n3ccnc3-c3ccncc3)cc2)nc2ccccc21` [Example 37, 2-((4-(2-(pyridin-4-yl)-1H-imidazol-1-yl)phenoxy)methyl)-1-methyl-1H-benzo[d]imidazole], for which the negative-log IC50 (pIC50) is 7.54.
As for `Cn1c(COc2ccc(-c3nn(CC(F)(F)F)cc3-c3ccncc3)cc2)nc2ccccc21` [Example 16, 1-Methyl-2-{4-[4-pyridin-4-yl-1-(2,2,2-trifluoro-ethyl)-1H-pyrazol-3yl]-phenoxymethyl}-1H-benzoimidazole], the pIC50 is 9.68.
Turning to `Cn1cc(-c2ccncc2)c(-c2ccc(OCc3nc4ccccc4n3C3CC3)cc2)n1` [Example 9, 1-Cyclopropyl-2-[4-(1-methyl-4-pyridin-4-yl-1H-pyrazol-3-yl)-phenoxymethyl]-1-H-benzoimidazole], the pIC50 was 9.16.
`COCCn1c(COc2ccc(-c3nn(C)cc3-c3ccncc3)cc2)nc2ccccc21` [Example 10, 1-(2-Methoxy-ethyl)-2[4-(1-methyl-4-pyridin-4-yl-1H-pyrazol-3-yl)-phenoxymethyl]-1H-benzoimidazole] showed a negative logarithm of the IC50 (pIC50) of 8.80. This pIC50 is 0.36 log units lower than that of the compound before.
Turning to `Cn1cc(-c2ccncc2)c(-c2ccc(OCc3nc4ccccc4n3CC(F)(F)F)cc2)n1` [Example 25, 2-[4-(1-Methyl-4-pyridin-4-yl-1H-pyrazol-3-yl)-phenoxymethyl]-1-(2,2,2trifluoro-ethyl)-1H-benzoimidazole], the pIC50 is 8.00.
In turn, `C[C@@H](O)Cn1cc(-c2ccncc2)c(-c2ccc(OCc3nc4ccccc4n3C)cc2)n1` [Example 3, 1-{3-[4(1-Methyl-1H-benzoimidazol-2-ylmethoxy)-phenyl]-4-pyridin-4-yl-pyrazol-1-yl)-propan-2-ol] showed a pIC50 of 8.59.
In turn, `CC(C)n1c(COc2ccc(-c3nn(C)cc3-c3ccncc3)cc2)nc2ccccc21` [Example 8, 1-Isopropyl-2-[4-(1-methyl-4-pyridin-4-yl-1H-pyrazol-3-yl)-phenoxymethyl]-1H-benzoimidazole] had a pIC50 of 8.05.
The compound `Cn1cc(-c2ccncc2)c(-c2ccc(OCc3nc4ncccc4n3C)cc2)n1` [Example 18] had a negative-log IC50 (pIC50) of 8.03.
Compound `FC(F)(F)Cn1cc(-c2ccncc2)c(-c2ccc(OCc3nc4ccccn4n3)cc2)n1` [Example 14, 2-{4-[4-Pyridin-4-yl-1-(2,2,2-trifluoro-ethyl)-1-H-pyrazol-3-yl]-phenoxymethyl}-[1,2,4]triazolo[1,5-a]pyridine] gave a pIC50 of 9.25. Against the preceding compound, the pIC50 is 1.22 log units higher.
In turn, `Cn1c(COc2ccc(-n3nccc3-c3ccncc3)cc2)nc2ccccc21` [Example 26, 1-Methyl-2-[4-(5-pyridin-4-yl-pyrazol-1-yl)-phenoxymethyl]-1H-benzoimidazole] showed a negative logarithm of the IC50 (pIC50) of 8.52.
Regarding `Cn1cc(-c2ccncc2)c(-c2ccc(OCc3cn4ccsc4n3)cc2)n1` [Example 32, 6-[4-(1-Methyl-4-pyridin-4-yl-1H-pyrazol-3-yl)-phenoxymethyl]-imidazo[2,1-b]thiazole], the pIC50 is 7.92.
Compound `Cn1cc(-c2ccncc2)c(-c2ccc(OCc3nc4cccc5c4n3CCC5)cc2)n1` [Example 23, 2-[4-(1-Methyl-4-pyridin-4-yl-1H-pyrazol-3-yl)-phenoxymethyl]-5,6-dihydro-4H-imidazo[4,5,1-ij]quinoline] had a negative-log IC50 (pIC50) of 8.51.
In turn, `Cn1cc(-c2ccncc2)c(-c2ccc(OCc3nc4ccccn4n3)cc2)n1` [Example 13, 2-[4-(1-Methyl-4-pyridin-4-yl-1H-pyrazol-3-yl)-phenoxymethyl]-[1,2,4]triazolo[1,5-a]-pyridine] gave a negative logarithm of the IC50 (pIC50) of 8.94.
The same measure for `FC(F)(F)Cn1cc(-c2ccncc2)c(-c2ccc(OCc3cn4ccccc4n3)cc2)n1` [Example 15]: 9.41; for `Cn1c(COc2ccc(-c3n[nH]cc3-c3ccncc3)cc2)nc2ccccc21` [Example 1, 1-Methyl-2-[4-(4-pyridin-4-yl-1H-pyrazol-3-yl)-phenoxymethyl]-1H-benzoimidazole]: 7.10; for `Cn1cc(-c2ccncc2)c(-c2ccc(OCc3cn4ccccc4n3)cc2)n1` [Example 11, 2-[4-(1-Methyl-4-pyridin-4yl-1H-pyrazol-3-yl)-phenoxymethyl]-imidazo[1,2-a]pyridine]: 9.28.
`Cn1cc(-c2ccncc2)c(-c2ccc(OCc3nc4ccccc4n3CF)cc2)n1` [Example 7, 1-Fluoromethyl-2-[4-(1-methyl-4-pyridin-4-yl-1H-pyrazol-3-yl)-phenoxymethyl]-1H-benzoimidazole]: the negative-log IC50 (pIC50) was 9.01.
Turning to `Cn1cc(-c2ccncc2)c(-c2ccc(OCc3nc4cc(F)c(F)cc4n3C)cc2)n1` [Example 20, 5,6-Difluoro-1-methyl-2-[4-(1-methyl-4-pyridin-4-yl-1H-pyrazol-3-yl)-phenoxymethyl]-1H-benzoimidazole], the negative logarithm of the IC50 (pIC50) was 7.78.
Regarding `Cn1c(COc2ccc(-c3oncc3-c3ccncc3)cc2)nc2ccccc21` [Example 4, 1-Methyl-2-[4-(4-pyridin-4-yl-isoxazol-5-yl)-phenoxymethyl]-1-H-benzoimidazole], the pIC50 was 8.31. This pIC50 is 0.53 log units higher than that of the compound before.
With `Cn1cc(-c2ccncc2)c(-c2ccc(OCc3nc4ccccc4n3C)cc2)n1` [Example 5, 1-Methyl-2-[4-(1-methyl-4-pyridin-4-yl-1H-pyrazol-3-yl)-phenoxymethyl]-1-H-benzoimidazole] the figure was 9.25; with `Cn1cc(-c2ccncc2)c(-c2ccc(OCc3nc4ccccc4s3)cc2)n1` [Example 21, 2-[4-(1-Methyl-4-pyridin-4-yl-1H-pyrazol-3-yl)-phenoxymethyl]-benzothiazole], 9.05.
As for `Cn1c(COc2ccc(-c3nncn3-c3ccncc3)cc2)nc2ccccc21` [Example 28, 1-Methyl-2[4-(4-pyridin-4-yl-4H-[1,2,4]triazol-3-yl)-phenoxymethyl]-1H-benzoimidazole], the negative-log IC50 (pIC50) is 7.33.
With `Cn1ncc(-c2ccncc2)c1-c1ccc(OCc2nc3ccccc3n2C)cc1` [Example 6, 1-Methyl-2-[4-(2 methyl-4-pyridin-4-yl-2H-pryazol-3-yl)-phenoxymethyl]-1H-benzoimidazole] the figure was 8.74.
`Oc1ccc(-n2ccnc2-c2ccncc2)cc1` [Preparation 37, 4-(2-(pyridin-4-yl)-1H-imidazol-1-yl)phenol] had a negative logarithm of the IC50 (pIC50) of 8.05. Compared with the last compound, the pIC50 is 0.69 log units lower.
In turn, `Cc1c(COc2ccc(-c3nn(C)cc3-c3ccncc3)cc2)nc2ccccn12` [Example 24, 3-Methyl-2-[4-(1-methyl-4-pyridin-4-yl-1H-pyrazol-3-yl)-phenoxymethyl]-imidazo[1,2-a]pyridine] gave a pIC50 of 8.85.
As for `Cn1cc(-c2ccncc2)c(-c2ccc(CCc3nc4ccccc4n3C)cc2)n1` [Example 27, 1-Methyl-2{2-[4-(1methyl-4-pyridin-4-yl-1H-pyrazol-3-yl)-phenyl]-ethyl}-1H-benzoimidazole], the negative logarithm of the IC50 (pIC50) is 7.79.
With `CCn1cc(-c2ccncc2)c(-c2ccc(OCc3nc4ccccc4n3C)cc2)n1` [Example 2, 2-[4-(1-Ethyl-4-pyridin-4-yl-1-H-pyrazol-3-yl)-phenoxylmethyl]-1-methyl-1-1H-benzoimidazole] the figure was 8.86; with `FC(F)(F)Cn1cc(-c2ccncc2)c(-c2ccc(OCc3nc4ccccc4s3)cc2)n1` [Example 22, 2-{4-[4-Pyridin-4-yl-1-(2,2 2-trifluoro-ethyl)-1H-pyrazol-3-yl]-phenoxymethyl}-benzothiazole], 8.83.
`FCn1c(COc2ccc(-c3nn(CC(F)(F)F)cc3-c3ccncc3)cc2)nc2ccccc21` [Example 17, 1-Fluoromethyl-2-{4-[4-pyridin-4-yl-1-(2.2.2-trifluoro-ethyl)-1-H-pyrazol-3-yl]-phenoxymethyl}-1H-benzoimidazole] had a negative-log IC50 (pIC50) of 9.12. Against the preceding compound, the pIC50 is 0.29 log units higher.
Turning to `Cn1ncc(-c2ccncc2)c1-c1ccc(OCc2cn3ccccc3n2)cc1` [Example 12], the pIC50 is 9.28.
Compound `Cn1cc(-c2ccncc2)c(-c2ccc(OCc3nc4cnccc4n3C)cc2)n1` [Example 19, 1-Methyl-2-[4-(1-methyl-4-pyridin-4-yl-1H-pyrazol-3-yl)-phenoxymethyl]-1-H-imidazo[4,5-c]pyridine] gave a pIC50 of 6.88.
